According to publication PMC4793304 (Bioscience Reports, 2016):
Read-outs that look alike come from different tables or passages of the source.

How the values were obtained:
mouse Pgp transporter [1] = target: T1, mouse Pgp transporter (Mus musculus, UniProt P21447)
From the text: (§1) Because of the complexity of the model shown in Figure 6A, the kinetics curves in Figures 6B and 6C were fit using the COPASI software package.

human Pgp [2] = settings: read-out: Km for ATPase activation; Caco-2 membrane vesicles containing human Pgp; cited from earlier work
mouse Pgp transporter [3] = target: T1, mouse Pgp transporter; remark: listed apart in the source
From the text: (§2) Drug-induced quenching of protein fluorescence with Pgp reconstituted in liposomes was investigated on an Olis DM 45 spectrofluorimeter (Olis Corp). […] Drug-induced fluorescence quenching was corrected (Fcorrected) for background fluorescence, dilution and inner filter effects with eqn (3) [57]:
3 Fcorrected=F−B10^ɛexbex+ɛembemQ/2
(§3) where F is the measured protein fluorescence, B is the background and [Q] is the quenching ligand concentration. The molar absorption coefficients (ε) for excitation and emission are εex and εem respectively. […] The pathlength (b) along the excitation and emission axes are bex and bem respectively. Drug-induced quenching of protein fluorescence from complexation of the ligand to the protein is known as static quenching, and can be used to estimate the drug's affinity. Drug-induced fluorescence quenching from random collisions with the protein is known as dynamic quenching [57]. Regardless of the nature of the quenching, the fluorescence quenching curves were fit to eqn (4) [57]:
4 Fcorrected=Fcorrected,0/1+KQ
(§4) where Fcorrected,0 is the protein fluorescence in the absence of a quenching ligand and K is the association constant (KA) or the Stern–Volmer quenching constant (KSV) in the case of a static and dynamic quenching processes respectively.

mouse Pgp transporter [4] = target: T1, mouse Pgp transporter; settings: proton near the 1,4 β-linkage; 250 μM digoxin, 1 μM Pgp
Method: The STDD NMR procedure for membrane proteins was performed as described in [68]. […] The STDD NMR experiments were performed with a double pulsed field gradient spin echo pulse sequence to suppress background water, a 2s train of 50 ms shaped saturation pulses to selectively excite the protein and a total relaxation delay of 5 s [63]. […] Control experiments were performed under identical conditions with liposomes and the drugs. To produce the STDD NMR spectrum, ^1H STD NMR spectrum of liposomes with drugs was subtracted from the ^1H STD NMR spectrum of Pgp reconstituted in liposomes with drugs (ΔI). […] The STDD amplification factor was calculated using the following equation based on the STD amplification factor (eqn 5) [63]:
5 STDDamplificationfactor=L/PΔI/I0
where [P] is the protein concentration and I0 is the amplitude of the ^1H NMR peaks in the absence of saturating pulses.

human Pgp [5] = settings: read-out: Km for ATPase activation; human Pgp-enriched insect cell membranes; cited from earlier work
Pgp = settings: read-out: Km for ATPase activation (implied); CR1R12 cells; maximal activation not reached at 1000 μM digoxin; cited from earlier work
mouse Pgp transporter [6] = target: T1, mouse Pgp transporter; assay: biochemical
From the text: as §2
3 Fcorrected=F−B10^ɛexbex+ɛembemQ/2
as §3
4 Fcorrected=Fcorrected,0/1+KQ
as §4

mouse Pgp transporter [7] = target: T1, mouse Pgp transporter; settings: 250 μM digoxin
Method: Control acrylamide titrations were performed in the presence of N-acetyl-L-tryptophanamide (NATA) to estimate the degree of non-specific quenching [55]. Fluorescence intensities were corrected for with eqn (3) [57]. To produce the Stern–Volmer plots, the Fcorrected,0/Fcorrected was plotted as a function of the acrylamide concentration. The degree of dynamic tryptophan quenching was estimated from the slopes of the Stern–Volmer curves, which is related to KSV by Fcorrected,0/Fcorrected = 1 + KSV[Q]

mouse Pgp transporter [8] = target: T1, mouse Pgp transporter; assay: biochemical; remark: listed apart in the source
From the text: as §1

mouse Pgp transporter [9] = target: T1, mouse Pgp transporter; remark: listed apart in the source
[10] = test system: human Pgp from Caco-2 cells; settings: read-out: Km for digoxin transport; cited from earlier work

T1 sequence (P21447 whole entry): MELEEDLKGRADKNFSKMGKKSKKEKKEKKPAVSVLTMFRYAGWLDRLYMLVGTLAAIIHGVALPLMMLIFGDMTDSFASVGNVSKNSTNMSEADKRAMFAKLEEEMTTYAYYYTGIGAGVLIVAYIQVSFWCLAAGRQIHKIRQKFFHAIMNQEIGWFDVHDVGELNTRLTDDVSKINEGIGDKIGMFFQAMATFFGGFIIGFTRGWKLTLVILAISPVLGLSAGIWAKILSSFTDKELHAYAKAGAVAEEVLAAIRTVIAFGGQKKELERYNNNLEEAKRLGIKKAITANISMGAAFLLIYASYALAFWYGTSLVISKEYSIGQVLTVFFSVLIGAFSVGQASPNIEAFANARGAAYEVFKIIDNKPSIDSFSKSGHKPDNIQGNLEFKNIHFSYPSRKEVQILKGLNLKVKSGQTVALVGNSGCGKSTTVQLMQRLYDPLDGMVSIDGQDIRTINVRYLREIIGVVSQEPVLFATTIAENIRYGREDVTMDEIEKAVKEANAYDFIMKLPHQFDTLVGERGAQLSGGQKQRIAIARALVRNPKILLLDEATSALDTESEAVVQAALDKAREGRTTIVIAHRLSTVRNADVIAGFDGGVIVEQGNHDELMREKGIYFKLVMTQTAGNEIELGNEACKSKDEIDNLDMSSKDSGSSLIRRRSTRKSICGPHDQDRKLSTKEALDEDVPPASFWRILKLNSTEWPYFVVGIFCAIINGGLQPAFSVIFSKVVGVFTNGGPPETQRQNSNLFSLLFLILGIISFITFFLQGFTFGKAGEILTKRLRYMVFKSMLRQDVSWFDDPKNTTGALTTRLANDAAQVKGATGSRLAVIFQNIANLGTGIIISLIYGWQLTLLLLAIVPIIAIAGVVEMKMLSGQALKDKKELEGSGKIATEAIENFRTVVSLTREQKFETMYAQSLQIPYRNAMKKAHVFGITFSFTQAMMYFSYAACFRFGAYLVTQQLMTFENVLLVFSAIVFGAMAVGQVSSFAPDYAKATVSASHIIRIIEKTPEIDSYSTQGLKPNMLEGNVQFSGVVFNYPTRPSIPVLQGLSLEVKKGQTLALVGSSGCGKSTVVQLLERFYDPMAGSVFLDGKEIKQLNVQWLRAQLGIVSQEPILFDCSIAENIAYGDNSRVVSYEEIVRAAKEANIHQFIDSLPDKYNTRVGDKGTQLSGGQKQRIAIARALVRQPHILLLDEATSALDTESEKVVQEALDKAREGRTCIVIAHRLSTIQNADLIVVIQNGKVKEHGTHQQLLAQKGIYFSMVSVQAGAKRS

## C[C@H]1O[C@@H](O[C@H]2[C@@H](O)C[C@H](O[C@H]3[C@@H](O)C[C@H](O[C@H]4CC[C@@]5(C)[C@H](CC[C@@H]6[C@@H]5C[C@@H](O)[C@]5(C)[C@@H](C7=CC(=O)OC7)CC[C@]65O)C4)O[C@@H]3C)O[C@@H]2C)C[C@H](O)[C@@H]1O [digoxin]
Mouse Pgp transporter [1]; average from fitting all curves
  average VMAX3: 1981 ± 207 nmol/min/mg
Mouse Pgp transporter [1]; both drugs bound, estimated by fitting with COPASI
  VMAX4,5, ATPase activation from simultaneous binding of digoxin and verapamil: 121 ± 139 nmol/min/mg
Mouse Pgp transporter [1]; in the absence of verapamil
  VMAX3 (digoxin, DDI model): 1983 nmol/min/mg
Human Pgp [2]
  Km: 1.2 µM
Mouse Pgp transporter [3]; 37°C, no verapamil
  K from fluorescence quenching: 0.0030 ± 0.0008 µM⁻¹
Mouse Pgp transporter [3]; excitation 280 nm, emission 333 nm, 25°C
  quenching of Pgp fluorescence at saturating digoxin: ~10%
Mouse Pgp transporter [4]
  highest STDD amplification factor: ~8
Human Pgp [5]
  Km: 83.7 µM
Pgp
  Km: > 500 µM
Mouse Pgp transporter [6]
  Kd: 100 ± 18 µM
Mouse Pgp transporter [7]
  KSV (acrylamide Stern-Volmer slope of Pgp): 2.29 ± 0.12 M⁻¹
Mouse Pgp transporter [8]; KD3 (digoxin, DDI model), in the absence of verapamil
  Kd: 239 µM
Mouse Pgp transporter [8]; KD4, affinity of digoxin to Pgp in the presence of verapamil, estimated indirectly by fitting with COPASI
  Kd: 292 ± 89 µM
Mouse Pgp transporter [8]; average KD3, average from fitting all curves
  Kd: 206 ± 53 µM
Mouse Pgp transporter [9]; 50 nM Pgp in liposomes, verapamil maximum at 8 μM
  maximum Pgp-coupled ATPase activity reached: ~1300 nmol/min/mg
Mouse Pgp transporter [9]; relative to basal activity, verapamil at 8 μM
  fold activation of ATPase at maximum: ~2 fold
Mouse Pgp transporter [9]; verapamil fit to substrate inhibition eqn 2, digoxin fit to Michaelis-Menten eqn 1
  VMAX of drug-induced ATP hydrolysis: 1344 ± 149.8 nmol/min/mg
[10]
  Km: 385 µM
